Patent US7442706B2, “Methods for treating sarcopenia with a growth hormone secretagogue” (priority 2006, dated 2008)
Marks after values point to notes of the source that are not given here.

Assays:
Type in all cases: in vivo, human
[1] = Body composition: body weight, FFM, fat mass, ASM (4-compartment model, DXA), AVF and thigh muscle (CT); details: for Mean Change in FFM from Baseline, 4-C / Mean Change in FFM from Baseline, DXA: n = 43
Method: This example presents the 6 and 12 mo (pivotal) body composition data in all subjects studied in a 2-yr crossover study. A total of 65 healthy older [60-81 yr; BMI 26.1±3 (19-35) kg/m^2] men and women on and off HRT (hormone replacement therapy) received MK-677 (⅔ of each group) or placebo in Yr 1. Total body fat mass, % fat, and fat-free mass (FFM) were determined every 6 mo over 2 yr using a 4-compartment (4-C) model, as well as dual energy x-ray absorptiometry (DXA, QDR 2000). 4-C model components: body weight and density (BodPod); total body water (D2O dilution); total bone mineral content (DXA). Data were analyzed by way of repeated measure ANCOVA with baseline response as the model covariate. P values and confidence limits were derived based on a Bonferroni two-sided experiment wise error rate 0.05; data shown are mean (upper and lower Bonferroni 95% CL).
(§1) Sixty-five healthy men and women (±HRT) ages 60-81 years were enrolled in a 2-year study of MK-677 (25 mg p.o. daily) or placebo. In addition to GH and IGF-I, the primary endpoints were fat-free mass (FFM), by 4-compartment model and DXA, and abdominal visceral fat (AVF) by CT. Secondary endpoints included isokinetic strength, function and quality of life (QoL); all endpoints were assessed at baseline and every 6 months, with frequent monitoring for adverse effects.
(§2) This NIH-funded study was approved by the General Clinical Research Center (GCRC) and the University of Virginia Institutional Review Boards. All subjects gave written informed consent. A two-year, double-blind, placebo-controlled modified crossover trial of once-daily administration of an oral GH secretogogue (MK-677, 25 mg) to healthy older adults was performed.
(§3) During the first year, subjects were randomized to MK-677 or placebo treatment. In each of 3 groups (23 men, 25 women on hormone replacement therapy (HRT) and 17 women not on HRT), ⅔ received MK-677 and ⅓ received placebo. At the end of year 1, the subjects who received placebo were switched to MK-677 treatment (N= 2/0 in year 2); subjects who received MK-677 for the first year were randomized to continue MK-677 (N=20) or to placebo (N=19).
Body Composition. The effects of treatment on FFM and total body fat were evaluated by two independent methods: a 4-compartment (4-C) model (5); and dual x-ray absorptiometry (DXA). All subjects were scanned on the same Hologic QDR-2000 in pencil beam mode as previously described (6); all scans were read by a single observer (J. L. C.). Total appendicular skeletal muscle (lean) mass (TASM) from DXA was measured as the sum of the lean soft-tissue masses for the arms and the legs as described by Heymsfield et al. (7). Total and abdominal visceral fat (AVF), and subcutaneous fat areas (cm^2), as well as thigh muscle were measured by computed tomography (CT) ((8) and all scans were read by a single observer (J. L. C.)
The two primary endpoints for this study are: 1) FFM, which is an important determinant of functional ability; and 2) AVF, which is the most important fat depot for cardiovascular risk. Based on a sample size of 60 subjects (40 randomized to MK-677 and 20 to placebo in year 1), this cross-over study was designed to have at least 90% power to detect a 4.1% or greater between-group difference in the change in percent FFM, with the same power to detect a 12.6% or greater between-group difference in the change in AVF (cm^2) after the initial 12-months of treatment. The sample size formula for two-sample Student's t-test was used to conduct the power analysis. The standard deviations used in the power calculations were 4.4% for percent FFM and 14.1% for AVF. Both power calculations reflect the power of a two-sided test with a type I error rate of 0.05.
The primary outcome data for the 6- and 12-month changes in FFM and AVF as well as for IGF-I and GH were analyzed via repeated measures ANCOVA. […]

GH = test: 24-h mean GH levels, blood sampled every 10 minutes for 24 hours, chemiluminescence assay, 2-year placebo-controlled trial; details: for 24-h mean GH, mean (range) fold-change / 24-h mean GH level in a person: 25 mg p.o. daily; for 24-h mean GH, mean (range) fold-change: N=43, ratio of geometric means; for 24-h mean GH level in a person: baseline 0.37
Method: as §1, §2, §3
Growth hormone (GH) concentrations and pulsatile characteristics. Blood samples were obtained every 10 minutes for 24 hours for measurement of GH in a sensitive chemiluminescence assay (2); endogenous GH secretory dynamics were assessed using an automated multiple-parameter deconvolution method as previously reported (1;3).
The primary outcome data for the 6- and 12-month changes in FFM and AVF as well as for IGF-I and GH were analyzed via repeated measures ANCOVA. The FFM and AVF data were analyzed on the same scale as they were measured, while the IGF-I and GH data were transformed to the natural logarithmic scale before conducting the statistical analyses so that the variance and normality assumptions of the linear model were not violated.
Since the FFM and AVF data were analyzed on the same scale as initially measured, the 6- and 12-month changes are reported as a difference between arithmetic means; changes in IGF-I and GH data analyzed on the natural algorithmic scale are reported as a ratio of geometric means.

[2] = Glucose metabolism: insulin sensitivity by Quicki, hemoglobin A1c
Method: Assays and Insulin Sensitivity. Plasma glucose was measured on a Beckman analyzer and insulin and total IGF-I were measured in the GCRC Core Laboratory on an Immulite 2000 (Diagnostic Products Corporation, Los Angeles, Calif.). Additional safety laboratory tests were performed by standard methods in the UVA Clinical Laboratories. Fasting insulin and glucose were used to estimate insulin sensitivity by the Quicki method (4).
In each of the 2 years, volunteers were seen monthly the first 3 months and every 3 months thereafter for a physical examination, documentation of medications and vital signs, routine laboratory tests and detailed questioning about possible side effects. Fasting blood glucose and hemoglobin Alc (HBAlc) were monitored for possible changes with MK-677 treatment, since increased blood glucose had been observed in previous studies (11;15).

[3] = 6 mo, 25 mg p.o. daily, mean (Bonferroni 95% CL)
[4] = 12 mo, 25 mg p.o. daily, methanesulfonate

- Insulin resistance estimated by Quicki ([2]; after 6 and 12 months of treatment, vs. placebo): increased significantly
- hemoglobin A1c levels ([2]; most subjects on MK-677): slight elevations
Structure (SMILES): CC(C)(N)C(=O)N[C@H](COCc1ccccc1)C(=O)N1CCC2(CC1)CN(S(C)(=O)=O)c1ccccc12.CS(=O)(=O)O [MK-677, N-[1(R)-[(1,2-dihydro-1-methanesulfonylspiro[3H-indole-3,4′-piperidin]-1′-yl)carbonyl]-2-(phenylmethyloxy)ethyl]-2-amino-2-methylpropanamide methanesulfonate]
- increase in appendicular skeletal muscle compared to placebo ([1]; 25 mg orally daily, over the first year): 1.6 kg
- Total ASM change from baseline and vs. placebo ([1]; 6 and 12 months, DXA): significantly increased
- Estimated Difference in Change (MK-677 vs Placebo), Body Wt ([1]; 6 mo, 25 mg p.o. daily): 2.3 (0.8-3.8)*** kg
- Estimated Difference in Change (MK-677 vs Placebo), FFM, 4-C ([1]; 6 mo, 25 mg p.o. daily): 1.28 (0.21-2.36)* kg
- Estimated Difference in Change (MK-677 vs Placebo), FFM, DXA ([1]; 6 mo, 25 mg p.o. daily): 1.15 (0.28-2.02)** kg
- Mean Change in FFM from Baseline, 4-C [1, 3]: 1.12 (0.48-1.75) kg
- Mean Change in FFM from Baseline, DXA [1, 3]: 0.98 (0.47-1.48) kg
- Total body weight increase ([1]; 6 months, 25 mg p.o. daily, placebo 0.7 kg): 3.1 kg
- Estimated Difference in Change (MK-677 vs Placebo), Body Wt ([1]; 12 mo, 25 mg p.o. daily): 1.9 (0.5-3.4)** kg
- Estimated Difference in Change (MK-677 vs Placebo), FFM, 4-C ([1]; 12 mo, 25 mg p.o. daily): 1.64 (0.56-2.71)** kg
- Estimated Difference in Change (MK-677 vs Placebo), FFM, DXA ([1]; 12 mo, 25 mg p.o. daily): 1.54 (0.67-2.41)*** kg
- Mean Change in FFM from Baseline, 4-C [1, 4]: 1.27 (0.64-1.90) kg
- Mean Change in FFM from Baseline, DXA [1, 4]: 1.09 (0.58-1.59) kg
- increase in thigh muscle area measured by CT vs. placebo ([1]; 12 months): did not reach statistical significance
- Total body weight increase ([1]; 12 months, 25 mg p.o. daily, placebo 0.8): 2.7 kg
- total body fat increase from baseline, DXA ([1]; 12 months, 25 mg p.o. daily, placebo 1.1 kg): 1.8 kg
- mean AVF increase from baseline, CT ([1]; 12 months, 25 mg p.o. daily, placebo 4.2 cm^2): 8.4 cm^2
- Subcutaneous fat change from baseline ([1]; 12 months, CT): significantly increased from baseline
- leg ASM change vs. baseline ([1]; 12 months, DXA): increased significantly
- total body fat, difference between MK-677 and placebo groups ([1]; 12 months, DXA): no significant difference between groups
- increase in FFM of the first year, in subjects treated for 2 yr ([1]; Yr 2, n=17, descriptive data): maintained
- increase in FFM in subjects switched from MK-677 to placebo ([1]; yr 2, descriptive data): lost
- 24-h mean GH, mean (range) fold-change (GH; 6 months): 1.9 (1.6-2.2) fold
- 24-h mean GH level in a person (GH; 6 months): 1.0 µg/L
- 24-h mean GH, mean (range) fold-change (GH; 12 months): 1.8 (1.6-2.0) fold
- 24-h mean GH level in a person (GH; 12 months): 0.86 µg/L
- Deconvolution analysis of the increase in GH (GH; secretion per peak vs. peak frequency): increased secretion per peak
